Assays:
MarR [1] = target: T1, MarR (Escherichia coli, UniProt P27245); settings: at millimolar concentrations; cited from earlier work
MarR [2] = target: T1, MarR; settings: at millimolar concentrations; cited from earlier work; remark: listed apart in the source
[3] = target: MarR, regulator of multiple antibiotic resistance of Escherichia coli (wild type, expressed from pMarR-WT) (Escherichia coli); assay: X-ray co-crystal structure of MarR dimer with salicylate

T1 sequence (P27245 whole entry): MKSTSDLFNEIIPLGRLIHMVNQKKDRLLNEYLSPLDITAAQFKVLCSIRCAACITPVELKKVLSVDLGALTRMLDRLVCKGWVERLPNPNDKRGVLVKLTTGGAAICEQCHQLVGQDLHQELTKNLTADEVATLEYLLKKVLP

In the case of O=C([O-])c1ccccc1O.[Na+] [sodium salicylate], the “inhibition of MarR activity in vitro” value (MarR [1]) is given as “inhibit MarR activity” and the “inhibition of MarR activity in whole cells” value (MarR [2]) is given as “inhibit MarR activity”.

“MarR, regulator of multiple antibiotic resistance of Escherichia coli (wild type, expressed from pMarR-WT)” showed a buried surface area (N-/C-terminal hydrophobic core) [3] of 3570 Å^2 and a total buried surface area [3] of 3700 Å^2.

Source: patent US7202339B2, “Crystals of MarR polypeptides, regulators of multiple antibiotic resistance” (Trustees of Tufts College, priority 2001, dated 2007)
